According to ChEMBL document CHEMBL5050844 (2019):

Key:
[1] = Induction of anti-CD3/CD28 antibodies-stimulated human T cell activation at 4 uM assessed fold increase in IL-2 secretion measured by ELISA assay; assay type: functional, T cell line
[2] = Induction of anti-CD3/CD28 antibodies-stimulated human T cell activation at 1 uM assessed fold increase in IL-2 secretion measured by ELISA assay; assay type: functional, T cell line
[3] = Induction of anti-CD3 antibodies-stimulated human T cell activation at 8 uM assessed fold increase in IL-2 secretion measured by ELISA assay; assay type: functional, T cell line; note: reference of the scale not given here
[4] = Induction of anti-CD3 antibodies-stimulated human T cell activation at 1 uM assessed fold increase in IL-2 secretion measured by ELISA assay; assay type: functional, T cell line; note: reference of the scale not given here
[5] = Induction of anti-CD3/CD28 antibodies-stimulated human T cell activation at 4 uM assessed fold increase in CD25 expression measured by ELISA assay; assay type: functional, T cell line
[6] = Induction of anti-CD3/CD28 antibodies-stimulated human T cell activation at 0.3 uM assessed fold increase in CD25 expression measured by ELISA assay; assay type: functional, T cell line
[7] = Induction of anti-CD3 antibodies-stimulated human T cell activation at 1 uM assessed fold increase in CD25 expression measured by ELISA assay; assay type: functional, T cell line; note: reference of the scale not given here
[8] = Induction of anti-CD3/CD28 antibodies-stimulated human CD4+ T cell activation at 10 uM assessed fold increase in cell proliferation measured by flow cytometry analysis; assay type: functional, T cell line
[9] = Induction of anti-CD3/CD28 antibodies-stimulated human CD4+ T cell activation at 1.11 uM assessed fold increase in cell proliferation measured by flow cytometry analysis; assay type: functional, T cell line
[10] = Induction of anti-CD3/CD28 antibodies-stimulated human CD8+ T cell activation at 10 uM assessed fold increase in CD69 expression measured by flow cytometry analysis; assay type: functional, T cell line
[11] = Induction of anti-CD3/CD28 antibodies-stimulated human CD8+ T cell activation at 1.11 uM assessed fold increase in CD69 expression measured by flow cytometry analysis; assay type: functional, T cell line
[12] = Induction of anti-CD3/CD28 antibodies-stimulated human CD8+ T cell activation at 10 uM assessed fold increase in cell proliferation measured by flow cytometry analysis; assay type: functional, T cell line
[13] = Induction of anti-CD3/CD28 antibodies-stimulated human CD8+ T cell activation at 1.11 uM assessed fold increase in cell proliferation measured by flow cytometry analysis; assay type: functional, T cell line
[14] = Induction of anti-CD3 antibodies-stimulated human CD4+ T cell activation at 10 uM assessed fold increase in CD69 expression measured by flow cytometry analysis; assay type: functional, T cell line; note: reference of the scale not given here
[15] = Induction of anti-CD3 antibodies-stimulated human CD4+ T cell activation at 1.11 uM assessed fold increase in CD69 expression measured by flow cytometry analysis; assay type: functional, T cell line; note: reference of the scale not given here
[16] = Induction of anti-CD3 antibodies-stimulated human CD8+ T cell activation at 10 uM assessed fold increase in CD69 expression measured by flow cytometry analysis; assay type: functional, T cell line; note: reference of the scale not given here
[17] = Induction of anti-CD3 antibodies-stimulated human CD8+ T cell activation at 1.11 uM assessed fold increase in CD69 expression measured by flow cytometry analysis; assay type: functional, T cell line; note: reference of the scale not given here
[18] = Induction of anti-CD3 antibodies-stimulated human CD8+ T cell activation at 10 uM assessed fold increase in cell proliferation measured by flow cytometry analysis; assay type: functional, T cell line; note: reference of the scale not given here
[19] = Induction of anti-CD3 antibodies-stimulated human CD8+ T cell activation at 1.11 uM assessed fold increase in cell proliferation measured by flow cytometry analysis; assay type: functional, T cell line; note: reference of the scale not given here
[20] = Induction of anti-CD3/CD28 antibodies-stimulated human T cell activation at 1.11 uM assessed fold increase in GM-CSF secretion measured by ELISA assay; assay type: functional, T cell line
[21] = Induction of anti-CD3 antibodies-stimulated human T cell activation at 10 uM assessed fold increase in GM-CSF secretion measured by ELISA assay; assay type: functional, T cell line; note: reference of the scale not given here
[22] = Induction of anti-CD3 antibodies-stimulated human T cell activation at 1.11 uM assessed fold increase in GM-CSF secretion measured by ELISA assay; assay type: functional, T cell line; note: reference of the scale not given here
[23] = Induction of anti-CD3/CD28 antibodies-stimulated human T cell activation at 10 uM assessed fold increase in TNF-alpha secretion measured by ELISA assay; assay type: functional, T cell line
[24] = Induction of anti-CD3/CD28 antibodies-stimulated human T cell activation at 1.11 uM assessed fold increase in TNF-alpha secretion measured by ELISA assay; assay type: functional, T cell line
[25] = Induction of anti-CD3/CD28 antibodies-stimulated human T cell activation at 1.11 uM assessed fold increase in IFN-gamma secretion measured by ELISA assay; assay type: functional, T cell line
[26] = Induction of anti-CD3 antibodies-stimulated human T cell activation at 10 uM assessed fold increase in IFN-gamma secretion measured by ELISA assay; assay type: functional, T cell line; note: reference of the scale not given here
[27] = Induction of anti-CD3 antibodies-stimulated human exhausted T cell activation assessed fold increase in IL-2 secretion measured by ELISA assay; assay type: functional, T cell line; note: reference of the scale not given here
[28] = Induction of anti-CD3 antibodies-stimulated human exhausted T cell activation assessed fold increase in GM-CSF secretion measured by ELISA assay; assay type: functional, T cell line; note: reference of the scale not given here
[29] = Induction of anti-CD3 antibodies-stimulated human exhausted CD4+ T cell activation assessed fold increase in CTLA4 expression measured by flow cytometry analysis; assay type: functional, T cell line; note: reference of the scale not given here
[30] = Induction of anti-CD3 antibodies-stimulated human exhausted CD8+ T cell activation assessed fold increase in CTLA4 expression measured by flow cytometry analysis; assay type: functional, T cell line; note: reference of the scale not given here
[31] = Induction of anti-CD3/CD28 antibodies-stimulated human anergic T cell activation at 1.11 uM assessed fold increase in IFN-gamma secretion measured by ELISA assay; assay type: functional, T cell line
[32] = Induction of anti-CD3/CD28 antibodies-stimulated human anergic T cell activation at 0.37 uM assessed fold increase in IFN-gamma secretion measured by ELISA assay; assay type: functional, T cell line
[33] = system: B cell; test: Induction of anti-IgM-stimulated human CD20+ B cell activation at 10 to 1000 uM assessed as increase in CD69 expression measured as mean fluorescence intensity AUC by flow cytometry analysis; assay type: functional, cell-based; settings: dose 10-1000 µM
[34] = Induction of activation of human CD56+ CD3- NK cells co-cultured with human K562 cells in 1:1 ratio and assessed as increase in IFN-gamma secretion at 10 uM measured by ELISA assay; assay type: functional, Natural killer cell
[35] = Induction of activation of human CD56+ CD3- NK cells co-cultured with human K562 cells in 1:1 ratio and assessed as increase in IFN-gamma secretion at 2.5 uM measured by ELISA assay; assay type: functional, Natural killer cell
[36] = Induction of activation of human CD56+ CD3- NK cells co-cultured with human K562 cells in 1:1 ratio and assessed as increase in IFN-gamma secretion at 0.625 uM measured by ELISA assay; assay type: functional, Natural killer cell
[37] = Induction of activation of human CD56+ CD3- NK cells co-cultured with human K562 cells in 1:1 ratio and assessed as increase in TNF-alpha secretion at 2.5 uM measured by ELISA assay; assay type: functional, Natural killer cell
[38] = Induction of activation of human CD56+ CD3- NK cells co-cultured with human K562 cells in 1:1 ratio and assessed as increase in TNF-alpha secretion at 0.625 uM measured by ELISA assay; assay type: functional, Natural killer cell

| Compound | fold change (FC) [1] | fold change (FC) [2] | fold change (FC) [3] | fold change (FC) [4] | fold change (FC) [5] | fold change (FC) [6] | fold change (FC) [7] | fold change (FC) [8] | fold change (FC) [9] | fold change (FC) [10] | fold change (FC) [11] | fold change (FC) [12] | fold change (FC) [13] | fold change (FC) [14] | fold change (FC) [15] | fold change (FC) [16] | fold change (FC) [17] | fold change (FC) [18] | fold change (FC) [19] | fold change (FC) [20] | also measured |
| --- | --- | --- | --- | --- | --- | --- | --- | --- | --- | --- | --- | --- | --- | --- | --- | --- | --- | --- | --- | --- | --- |
| Cn1cnnc1C(F)(F)[C@](C)(F)c1cccc(N2Cc3c(cc(CN4CC[C@@H](C#N)C4)cc3C(F)(F)F)C2=O)c1 | >=7.5 | >=7.5 | >=0.201 | 0.151 | 1.31 | 1.01 | 0.801 | >4 | >4 | 1.201 | 1.201 | >4 | 3.01 | >1.601 | 1.401 | 1.401 | 1.201 | >4 | >4 | 2.01 | fold change (FC) [21]: 2.01; fold change (FC) [22]: 1.51; fold change (FC) [23]: 2.01; fold change (FC) [24]: 2.01; fold change (FC) [25]: >4; fold change (FC) [26]: 3.01; fold change (FC) [27]: <=2.5; fold change (FC) [28]: >1.61; fold change (FC) [29]: >1.61; fold change (FC) [30]: >1.61; fold change (FC) [31]: 2.51; fold change (FC) [32]: <=2.5; AUC [33]: 1.01; fold change (FC) [34]: >=5; fold change (FC) [35]: >=5; fold change (FC) [36]: 2.01; fold change (FC) [37]: 2.01; fold change (FC) [38]: 1.01 |
| C[C@H](Sc1nncn1C)c1cccc(NC(=O)c2cccc(C(F)(F)F)n2)c1 | >=7.5 | 2.51 | >=0.201 | 0.051 | >=1.76 | 1.31 | 0.601 | <=2 | <=2 | <=1.2 | <=1.2 | <=2 | <=2 | <=1.2 | <=1.2 | <=1.2 | <=1.2 | <=2 | <=2 | 1.51 | fold change (FC) [21]: 2.01; fold change (FC) [22]: 1.51; fold change (FC) [23]: 2.01; fold change (FC) [24]: 1.51; fold change (FC) [25]: <=2; fold change (FC) [26]: <=2; fold change (FC) [27]: <=2.5; fold change (FC) [28]: 1.41; fold change (FC) [29]: <=1.4; fold change (FC) [30]: <=1.4; fold change (FC) [31]: 2.51; fold change (FC) [32]: <=2.5; AUC [33]: 0.5; fold change (FC) [34]: 2.01; fold change (FC) [35]: 1.01; fold change (FC) [36]: <=1; fold change (FC) [37]: 1.01; fold change (FC) [38]: 1.01 |
